Test results taken from PubChem BioAssay (NCI).
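Cells were grown in 96-well plates and exposed to each compound for 48 hours at five concentrations; endpoints were interpolated linearly between bracketing concentrations, or set to the highest concentration if not reached. TGI: concentration producing complete growth inhibition.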

Legend:
Assay in all cases: NCI anticancer screen, dose series, 48 h
786-0 renal = tested on: 786-0 renal
A498 renal = tested on: A498 renal
A549 NSCLC = tested on: A549 NSCLC
ACHN renal = tested on: ACHN renal
CAKI-1 renal = tested on: CAKI-1 renal
COLO 205 colon = tested on: COLO 205 colon
DLD-1 colon = tested on: DLD-1 colon
DMS 114 small cell lung = tested on: DMS 114 small cell lung
DMS 273 small cell lung = tested on: DMS 273 small cell lung
EKVX NSCLC = tested on: EKVX NSCLC
HCC-2998 colon = tested on: HCC-2998 colon
HCT-116 colon = tested on: HCT-116 colon
HCT-15 colon = tested on: HCT-15 colon
HOP-18 NSCLC = tested on: HOP-18 NSCLC
HOP-62 NSCLC = tested on: HOP-62 NSCLC
HOP-92 NSCLC = tested on: HOP-92 NSCLC
HT29 colon = tested on: HT29 colon
IGROV1 ovarian = tested on: IGROV1 ovarian
KM12 colon = tested on: KM12 colon
KM20L2 colon = tested on: KM20L2 colon
LOX IMVI melanoma = tested on: LOX IMVI melanoma
LXFL 529 NSCLC = tested on: LXFL 529 NSCLC
M14 melanoma = tested on: M14 melanoma
M19-MEL melanoma = tested on: M19-MEL melanoma
MALME-3M melanoma = tested on: MALME-3M melanoma
MOLT-4 leukemia = tested on: MOLT-4 leukemia
NCI-H226 lung = tested on: NCI-H226 lung
NCI-H23 lung = tested on: NCI-H23 lung
NCI-H460 lung = tested on: NCI-H460 lung
NCI-H522 lung = tested on: NCI-H522 lung
OVCAR-3 ovarian = tested on: OVCAR-3 ovarian
OVCAR-4 ovarian = tested on: OVCAR-4 ovarian
OVCAR-5 ovarian = tested on: OVCAR-5 ovarian
OVCAR-8 ovarian = tested on: OVCAR-8 ovarian
RPMI-8226 leukemia = tested on: RPMI-8226 leukemia
RXF 393 renal = tested on: RXF 393 renal
SF-268 CNS = tested on: SF-268 CNS
SF-295 CNS = tested on: SF-295 CNS
SF-539 CNS = tested on: SF-539 CNS
SK-MEL-2 melanoma = tested on: SK-MEL-2 melanoma
SK-MEL-28 melanoma = tested on: SK-MEL-28 melanoma
SK-MEL-5 melanoma = tested on: SK-MEL-5 melanoma
SK-OV-3 ovarian = tested on: SK-OV-3 ovarian
SN12C renal = tested on: SN12C renal
SNB-19 CNS = tested on: SNB-19 CNS
SNB-75 CNS = tested on: SNB-75 CNS
SNB-78 CNS = tested on: SNB-78 CNS
SR leukemia = tested on: SR leukemia
SW-620 colon = tested on: SW-620 colon
TK-10 renal = tested on: TK-10 renal
U251 CNS = tested on: U251 CNS
UACC-257 melanoma = tested on: UACC-257 melanoma
UACC-62 melanoma = tested on: UACC-62 melanoma
UO-31 renal = tested on: UO-31 renal
XF 498 CNS = tested on: XF 498 CNS
CCRF-CEM leukemia = tested on: CCRF-CEM leukemia
HL-60(TB) leukemia = tested on: HL-60(TB) leukemia
K-562 leukemia = tested on: K-562 leukemia

S=c1sc2c(Cl)ncnc2n1-c1ccccc1
TGI (786-0 renal): 29.2 µM | TGI (A498 renal): 30.9 µM | TGI (A549 NSCLC): 67.8 µM | TGI (ACHN renal): 30 µM | TGI (CAKI-1 renal): 13.8 µM | TGI (COLO 205 colon): 29 µM | TGI (DLD-1 colon): 24.2 µM | TGI (DMS 114 small cell lung): 28.1 µM | TGI (DMS 273 small cell lung): 2.83 µM | TGI (EKVX NSCLC): 31.5 µM | TGI (HCC-2998 colon): 31.1 µM | TGI (HCT-116 colon): 18.6 µM | TGI (HCT-15 colon): 28.4 µM | TGI (HOP-18 NSCLC): 39.5 µM | TGI (HOP-62 NSCLC): 29.3 µM | TGI (HOP-92 NSCLC): 34.3 µM | TGI (HT29 colon): 24.1 µM | TGI (IGROV1 ovarian): 28.2 µM | TGI (KM12 colon): 31 µM | TGI (KM20L2 colon): 34.2 µM | TGI (LOX IMVI melanoma): 16.6 µM | TGI (LXFL 529 NSCLC): 24.9 µM | TGI (M14 melanoma): 26.3 µM | TGI (M19-MEL melanoma): 13.1 µM | TGI (MALME-3M melanoma): 23.9 µM | TGI (MOLT-4 leukemia): 56.1 µM | TGI (NCI-H226 lung): 26.4 µM | TGI (NCI-H23 lung): 31.7 µM | TGI (NCI-H460 lung): 32.6 µM | TGI (NCI-H522 lung): 3.8 µM | TGI (OVCAR-3 ovarian): 28.9 µM | TGI (OVCAR-4 ovarian): 33.6 µM | TGI (OVCAR-5 ovarian): 53.8 µM | TGI (OVCAR-8 ovarian): 31.6 µM | TGI (RPMI-8226 leukemia): 56.7 µM | TGI (RXF 393 renal): 28.9 µM | TGI (SF-268 CNS): 18.5 µM | TGI (SF-295 CNS): 25.5 µM | TGI (SF-539 CNS): 29.9 µM | TGI (SK-MEL-2 melanoma): 21.3 µM | TGI (SK-MEL-28 melanoma): 23.6 µM | TGI (SK-MEL-5 melanoma): 29.7 µM | TGI (SK-OV-3 ovarian): 34.3 µM | TGI (SN12C renal): 29.4 µM | TGI (SNB-19 CNS): 32.9 µM | TGI (SNB-75 CNS): 27.4 µM | TGI (SNB-78 CNS): 33.4 µM | TGI (SR leukemia): 9.36 µM | TGI (SW-620 colon): 35.1 µM | TGI (TK-10 renal): 33.2 µM | TGI (U251 CNS): 29.5 µM | TGI (UACC-257 melanoma): 33.6 µM | TGI (UACC-62 melanoma): 21.4 µM | TGI (UO-31 renal): 32.7 µM | TGI (XF 498 CNS): 28.7 µM

CCCCCCCCCCCOC(=S)NC(C)C
TGI (786-0 renal): 39.3 µM | TGI (A498 renal): 39 µM | TGI (A549 NSCLC): 51.1 µM | TGI (ACHN renal): 35.9 µM | TGI (CAKI-1 renal): 39.9 µM | TGI (CCRF-CEM leukemia): 61.4 µM | TGI (DLD-1 colon): 49 µM | TGI (DMS 114 small cell lung): 36.1 µM | TGI (DMS 273 small cell lung): 34.4 µM | TGI (EKVX NSCLC): 43.3 µM | TGI (HCC-2998 colon): 31.1 µM | TGI (HCT-116 colon): 31.3 µM | TGI (HCT-15 colon): 31.8 µM | TGI (HL-60(TB) leukemia): 39.1 µM | TGI (HOP-18 NSCLC): 88.5 µM | TGI (HOP-62 NSCLC): 36.6 µM | TGI (HOP-92 NSCLC): 32.2 µM | TGI (HT29 colon): 34.6 µM | TGI (IGROV1 ovarian): 49.9 µM | TGI (K-562 leukemia): 46.4 µM | TGI (KM12 colon): 37.7 µM | TGI (KM20L2 colon): 30.2 µM | TGI (LOX IMVI melanoma): 30.7 µM | TGI (LXFL 529 NSCLC): 85.4 µM | TGI (M14 melanoma): 60.6 µM | TGI (M19-MEL melanoma): 58.6 µM | TGI (MALME-3M melanoma): 49.5 µM | TGI (MOLT-4 leukemia): 36.2 µM | TGI (NCI-H23 lung): 38.1 µM | TGI (NCI-H460 lung): 50.7 µM | TGI (NCI-H522 lung): 39.7 µM | TGI (OVCAR-4 ovarian): 52 µM | TGI (OVCAR-5 ovarian): 52.5 µM | TGI (OVCAR-8 ovarian): 31.7 µM | TGI (RPMI-8226 leukemia): 33.2 µM | TGI (RXF 393 renal): 42.9 µM | TGI (SF-268 CNS): 42.7 µM | TGI (SF-295 CNS): 40.7 µM | TGI (SF-539 CNS): 35.4 µM | TGI (SK-MEL-2 melanoma): 40 µM | TGI (SK-MEL-28 melanoma): 56.6 µM | TGI (SK-MEL-5 melanoma): 31.2 µM | TGI (SK-OV-3 ovarian): 49.6 µM | TGI (SN12C renal): 30.1 µM | TGI (SNB-19 CNS): > 100 µM | TGI (SNB-75 CNS): 62.8 µM | TGI (SNB-78 CNS): 78.5 µM | TGI (SR leukemia): 44.3 µM | TGI (SW-620 colon): 30.2 µM | TGI (TK-10 renal): 86.1 µM | TGI (U251 CNS): 30.2 µM | TGI (UACC-257 melanoma): 42.6 µM | TGI (UACC-62 melanoma): 31.1 µM | TGI (UO-31 renal): 32.2 µM | TGI (XF 498 CNS): 30.9 µM
